Measured values reported in PubChem BioAssay (NCI).
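Interpolation was linear, between the two tested concentrations surrounding the appropriate level; five concentrations were tested over 48 hours in 96-well plates. TGI: concentration producing complete growth inhibition.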

Experiments:
Experiment in all cases: NCI tumour cell line growth inhibition, 48 h
[1] = system: UACC-257 melanoma
[2] = system: SF-295 CNS
[3] = system: UO-31 renal
[4] = system: TK-10 renal
[5] = system: A549 NSCLC
[6] = system: SK-MEL-28 melanoma
[7] = system: EKVX NSCLC
[8] = system: BT-549 breast
[9] = system: NCI-H226 lung
[10] = system: SK-MEL-2 melanoma
[11] = system: U251 CNS
[12] = system: HT29 colon
[13] = system: SW-620 colon
[14] = system: NCI-H23 lung
[15] = system: NCI-H522 lung
[16] = system: HCT-15 colon
[17] = system: MDA-MB-435
[18] = system: M14 melanoma
[19] = system: HOP-62 NSCLC
[20] = system: MOLT-4 leukemia
[21] = system: KM12 colon
[22] = system: MDA-N
[23] = system: SF-268 CNS
[24] = system: NCI/ADR-RES ovarian
[25] = system: K-562 leukemia
[26] = system: COLO 205 colon
[27] = system: 786-0 renal
[28] = system: UACC-62 melanoma
[29] = system: OVCAR-3 ovarian
[30] = system: SNB-19 CNS
[31] = system: HOP-92 NSCLC
[32] = system: SN12C renal
[33] = system: OVCAR-8 ovarian
[34] = system: A498 renal
[35] = system: OVCAR-4 ovarian
[36] = system: HCT-116 colon
[37] = system: CCRF-CEM leukemia
[38] = system: DU-145 prostate
[39] = system: HS 578T breast
[40] = system: NCI-H460 lung
[41] = system: ACHN renal
[42] = system: MCF7 breast
[43] = system: HL-60(TB) leukemia
[44] = system: LOX IMVI melanoma
[45] = system: MALME-3M melanoma
[46] = system: OVCAR-5 ovarian
[47] = system: SK-OV-3 ovarian
[48] = system: CAKI-1 renal
[49] = system: PC-3 prostate
[50] = system: SK-MEL-5 melanoma
[51] = system: IGROV1 ovarian
[52] = system: SF-539 CNS
[53] = system: SR leukemia
[54] = system: RPMI-8226 leukemia
[55] = system: MDA-MB-231 breast
[56] = system: RXF 393 renal
[57] = system: HCC-2998 colon
[58] = system: SNB-75 CNS

Question: What does the source list for `Cc1cc(C)c(S(=O)(=O)N2CCN(S(=O)(=O)c3c(C)cc(C)cc3C)OCCCCCO2)c(C)c1`?
Answer: TGI [1]: > 100 µM; TGI [2]: > 100 µM; TGI [3]: > 100 µM; TGI [4]: > 100 µM; TGI [5]: > 100 µM; TGI [6]: > 100 µM; TGI [7]: > 100 µM; TGI [8]: > 100 µM; TGI [9]: > 100 µM; TGI [10]: > 100 µM; TGI [11]: > 100 µM; TGI [12]: > 100 µM; TGI [13]: > 100 µM; TGI [14]: > 100 µM; TGI [15]: > 100 µM; TGI [16]: > 100 µM; TGI [17]: > 100 µM; TGI [18]: > 100 µM; TGI [19]: > 100 µM; TGI [20]: > 100 µM; TGI [21]: > 100 µM; TGI [22]: > 100 µM; TGI [23]: > 100 µM; TGI [24]: > 100 µM; TGI [25]: > 100 µM; TGI [26]: > 100 µM; TGI [27]: > 100 µM; TGI [28]: > 100 µM; TGI [29]: > 100 µM; TGI [30]: > 100 µM; TGI [31]: > 100 µM; TGI [32]: > 100 µM; TGI [33]: > 100 µM; TGI [34]: > 100 µM; TGI [35]: > 100 µM; TGI [36]: > 100 µM; TGI [37]: > 100 µM; TGI [38]: > 100 µM; TGI [39]: > 100 µM; TGI [40]: > 100 µM; TGI [41]: > 100 µM; TGI [42]: > 100 µM; TGI [43]: > 100 µM; TGI [44]: > 100 µM; TGI [45]: > 100 µM; TGI [46]: > 100 µM; TGI [47]: > 100 µM; TGI [48]: > 100 µM; TGI [49]: > 100 µM; TGI [50]: > 100 µM; TGI [51]: > 100 µM

Question: Which results are given for `COC(=O)[C@H](NC(=O)OC(C)(C)C)[C@H]1COC(C)(C)O1`?
Answer: TGI [1]: > 100 µM; TGI [2]: > 100 µM; TGI [3]: > 100 µM; TGI [4]: > 100 µM; TGI [5]: > 100 µM; TGI [6]: > 100 µM; TGI [7]: > 100 µM; TGI [8]: > 100 µM; TGI [10]: > 100 µM; TGI [11]: > 100 µM; TGI [12]: > 100 µM; TGI [13]: > 100 µM; TGI [14]: > 100 µM; TGI [52]: > 100 µM; TGI [15]: > 100 µM; TGI [16]: > 100 µM; TGI [17]: > 100 µM; TGI [18]: > 100 µM; TGI [19]: > 100 µM; TGI [20]: > 100 µM; TGI [21]: > 100 µM; TGI [22]: > 100 µM; TGI [23]: > 100 µM; TGI [24]: > 100 µM; TGI [25]: > 100 µM; TGI [26]: > 100 µM; TGI [27]: > 100 µM; TGI [28]: > 100 µM; TGI [29]: > 100 µM; TGI [30]: > 100 µM; TGI [32]: > 100 µM; TGI [33]: > 100 µM; TGI [34]: > 100 µM; TGI [35]: > 100 µM; TGI [36]: > 100 µM; TGI [37]: > 100 µM; TGI [38]: > 100 µM; TGI [53]: > 100 µM; TGI [41]: > 100 µM; TGI [42]: > 100 µM; TGI [43]: > 100 µM; TGI [44]: > 100 µM; TGI [45]: > 100 µM; TGI [46]: > 100 µM; TGI [47]: > 100 µM; TGI [48]: > 100 µM; TGI [54]: > 100 µM; TGI [55]: > 100 µM; TGI [56]: > 100 µM; TGI [57]: > 100 µM; TGI [49]: > 100 µM; TGI [50]: > 100 µM; TGI [51]: > 100 µM

Question: `C/C1=C\[C@H](C)C[C@H](C)OC(=O)C[C@H](c2ccc(O)cc2)NC(=O)[C@H](Cc2ccc(O)c(I)c2)N(C)C(=O)[C@H](C)NC(=O)[C@@H](C)C1` was tested. Which TGI [2] did it give?
Answer: > 25 µM

Question: What about the TGI [3] of the same compound?
Answer: 0.185 µM

Question: What about the TGI [4] of the same compound?
Answer: > 25 µM

Question: And the TGI [5]?
Answer: > 25 µM

Question: And the TGI [6]?
Answer: > 25 µM

Question: And the TGI [7]?
Answer: 6.84 µM

Question: And the TGI [9]?
Answer: > 25 µM

Question: And the TGI [10]?
Answer: 6.78 µM

Question: What about the TGI [58] of the same compound?
Answer: 10.3 µM

Question: And the TGI [11]?
Answer: 6.9 µM

Question: What about the TGI [12] of the same compound?
Answer: > 25 µM

Question: And the TGI [13]?
Answer: > 25 µM

Question: What about the TGI [14] of the same compound?
Answer: > 25 µM

Question: What about the TGI [15] of the same compound?
Answer: > 25 µM

Question: And the TGI [16]?
Answer: > 25 µM

Question: And the TGI [17]?
Answer: 5.18 µM

Question: And the TGI [18]?
Answer: > 25 µM

Question: What about the TGI [19] of the same compound?
Answer: > 25 µM

Question: What about the TGI [20] of the same compound?
Answer: > 25 µM

Question: And the TGI [21]?
Answer: > 25 µM

Question: What about the TGI [22] of the same compound?
Answer: 13.8 µM

Question: And the TGI [23]?
Answer: 0.153 µM

Question: And the TGI [24]?
Answer: 18.8 µM

Question: And the TGI [25]?
Answer: > 25 µM

Question: What about the TGI [26] of the same compound?
Answer: > 25 µM

Question: What about the TGI [27] of the same compound?
Answer: > 25 µM

Question: And the TGI [28]?
Answer: 8.77 µM

Question: What about the TGI [29] of the same compound?
Answer: > 25 µM

Question: What about the TGI [30] of the same compound?
Answer: > 25 µM

Question: And the TGI [31]?
Answer: 0.118 µM

Question: What about the TGI [32] of the same compound?
Answer: 22.9 µM

Question: What about the TGI [33] of the same compound?
Answer: 3.45 µM

Question: And the TGI [34]?
Answer: 0.0948 µM

Question: And the TGI [35]?
Answer: 0.0186 µM

Question: And the TGI [36]?
Answer: 18.6 µM

Question: And the TGI [37]?
Answer: > 25 µM

Question: And the TGI [38]?
Answer: > 25 µM

Question: And the TGI [53]?
Answer: > 25 µM

Question: And the TGI [39]?
Answer: 0.245 µM

Question: And the TGI [41]?
Answer: > 25 µM

Question: What about the TGI [42] of the same compound?
Answer: > 25 µM

Question: And the TGI [44]?
Answer: > 25 µM

Question: And the TGI [45]?
Answer: 3.06 µM

Question: What about the TGI [46] of the same compound?
Answer: > 25 µM

Question: And the TGI [47]?
Answer: 16.9 µM

Question: And the TGI [54]?
Answer: > 25 µM

Question: What about the TGI [55] of the same compound?
Answer: 0.433 µM

Question: What about the TGI [49] of the same compound?
Answer: > 25 µM

Question: And the TGI [50]?
Answer: 11.1 µM

Question: And the TGI [51]?
Answer: > 25 µM
